Measurements as given in ChEMBL document CHEMBL1148064, “Nepheliosyne A, new C47 acetylenic acid from the Okinawan marine sponge Xestospongia sp” (1994).

Key:
L1210 = experiment: Cytotoxicity against mouse L1210 cells at 20 ug/cm'3; type: functional
KB = experiment: Cytotoxicity against human KB cells at 20 ug/cm'3; type: functional

## C#CC(O)/C=C/C(O)C/C=C/CC(O)C#CC(O)C#CC(O)CCC/C=C\CCCCCCCCC(O)C(=O)CCCCCCCCCC(O)CC(O)C#CC(=O)O (configuration not stated) [NEPHELIOSYNE A]
L1210
  Activity: 40%
KB
  Activity: 14%
